For data set [1], the target named is indoleamine 2, 3-dioxygenase (IDO1) (Homo sapiens, UniProt P14902). The data set is described as follows: IDO1 PBMC RapidFire MS assay (kynurenine detection by mass spectrometry). Format: cell-based. The settings on record: human PBMC stimulated with IFN-γ and LPS, 2 days, pIC50, read-out: PBMC PXC50 (converted). Also noted: to induce the expression of indoleamine 2, 3-dioxygenase (IDO1); host or cells: human PBMC stimulated with IFN-gamma and LPS. In short, it runs like this:
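PBMCs (50,000 cells/well) stimulated with IFN-γ 100 ng/ml plus LPS 50 ng/ml, treated with 11-point 3-fold compound series for 2 days at 37° C. Supernatant kynurenine measured by RapidFire MS, normalised to internal standard; parallel cytotoxicity by CellTiter-Glo luminescence; curves fitted for XC50.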

Data set [2] relates to human peripheral blood mononuclear cells (PBMC). Put plainly: PBMC cytotoxicity assay (CellTiter-Glo). Format: cell-based. Conditions: 2 days, pCC50. In short, it runs like this: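 Human PBMC (50,000 cells/well) stimulated with IFN-γ 100 ng/ml and LPS 50 ng/ml were exposed to 11-point 3-fold compound dilutions for 2 days at 37 °C, 5% CO2. Viability read by CellTiter-Glo ATP luminescence and normalized to no-cell and stimulated-DMSO controls. XC50 derived by four-parameter fit.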

25 molecules from patent publication US10899754B2, “Modulators of indoleamine 2,3-dioxygenase” (GLAXOSMITHKLINE INTELLECTUAL PROPERTY DEVELOPMENT LIMITED, priority 2016, dated 2021) can be followed below.

Sequence of indoleamine 2, 3-dioxygenase (IDO1) (P14902 whole entry): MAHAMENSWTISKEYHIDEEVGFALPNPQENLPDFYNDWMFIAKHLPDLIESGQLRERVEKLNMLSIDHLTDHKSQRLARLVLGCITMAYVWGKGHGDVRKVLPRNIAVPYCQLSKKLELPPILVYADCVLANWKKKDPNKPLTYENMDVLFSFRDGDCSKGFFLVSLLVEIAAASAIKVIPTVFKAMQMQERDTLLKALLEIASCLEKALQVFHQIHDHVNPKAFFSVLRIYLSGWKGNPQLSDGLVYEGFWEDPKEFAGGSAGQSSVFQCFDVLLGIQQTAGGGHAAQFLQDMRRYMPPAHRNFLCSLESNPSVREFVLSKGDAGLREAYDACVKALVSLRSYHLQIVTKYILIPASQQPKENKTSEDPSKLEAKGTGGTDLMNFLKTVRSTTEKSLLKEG

With `CC(C)CN(c1ccc(C(C)Nc2c(O)c(=O)c2=O)cc1Nc1nc(C(F)(F)F)ns1)C1CCOCC1` (centres unmarked) [example 256, 3-hydroxy-4-[(1-{4-[(2-methylpropyl)(oxan-4-yl)amino]-3-{[3-(trifluoromethyl)-1,2,4-thiadiazol-5-yl]amino}phenyl}ethyl)amino]cyclobut-3-ene-1,2-dione], the IC50 in data set [1] is 2510 nM. Besides, the “PBMC TOX PXC50” value in data set [2] is reported as under 5.

For `CC(C)CN(c1ccc([C@H](C)CC(=O)O)cc1Nc1ncc(Cl)cn1)C1CCOCC1` [example 231, (3R)-3-{3-[(5-chloropyrimidin-2-yl)amino]-4-[(2-methylpropyl)(oxan-4-yl)amino]phenyl}butanoic acid], in data set [1], the IC50 is 25.1 nM. Further, the “PBMC TOX PXC50” value in data set [2] was under 5.

For `CC(C)CN(c1cc(F)c([C@H](C)CC(=O)O)cc1Nc1ccc(Cl)cn1)C1CCOCC1` [Example 36, (R)-3-(5-((5-chloropyridin-2-yl)amino)-2-fluoro-4-(isobutyl(tetrahydro-2H-pyran-4-yl)amino)phenyl)butanoic Acid], in data set [1], the IC50 was 0.631 nM. Also, the “PBMC TOX PXC50” value in data set [2] was under 5.

Regarding `CO[C@H]1CC[C@@H](N(CC(C)C)c2ccc([C@H](C)CC(=O)O)cc2Nc2ccc(Cl)cn2)CC1` [Example 47, (R)-3-(3-((5-chloropyridin-2-yl)amino)-4-(isobutyl((1s,4S)-4-methoxycyclohexyl)amino)phenyl)butanoic Acid], in data set [1], the IC50 is 0.794 nM. In data set [2], the “PBMC TOX PXC50” value is under 5.

`CNC(=O)c1nnc(Nc2cc([C@H](C)CC(=O)O)ccc2N(CC(C)C)C2CCOCC2)s1` [example 257, (3R)-3-(3-{[5-(methylcarbamoyl)-1,3,4-thiadiazol-2-yl]amino}-4-[(2-methylpropyl)(oxan-4-yl)amino]phenyl)butanoic acid]: the IC50 in data set [1] was 31.6 nM. In data set [2], the “PBMC TOX PXC50” value is on record as under 5.

`CO[C@H](C)CN(C[C@@H](C)OC)c1ccc([C@H](C)CC(=O)O)cc1Nc1nc(C(F)(F)F)ns1` [example 258, (3R)-3-(4-{bis[(2R)-2-methoxypropyl]amino}-3-{[3-(trifluoromethyl)-1,2,4-thiadiazol-5-yl]amino}phenyl)butanoic acid]: in data set [1], the IC50 is 79.4 nM. Further, in data set [2], the “PBMC TOX PXC50” value is under 5.

On to `CO[C@H]1CC[C@@H](N(CC(C)C)c2ccc([C@H](C)CC(=O)O)cc2Nc2ccc(C#N)cn2)CC1` [Example 53, (R)-3-(3-((5-cyanopyridin-2-yl)amino)-4-(isobutyl((1s,4S)-4-methoxycyclohexyl)amino)phenyl)butanoic Acid], for which the IC50 in data set [1] was 1.58 nM. The “PBMC TOX PXC50” value in data set [2] was under 5.

`CC(C)CN(CC(C)C)c1ccc(C(C)CC(=O)O)cc1Nc1nnn(C(C)C)n1` (centres unmarked) [example 250, 3-{4-[bis(2-methylpropyl)amino]-3-{[2-(propan-2-yl)-2H-1,2,3,4-tetrazol-5-yl]amino}phenyl}butanoic acid]: the IC50 in data set [1] is 1260 nM. In addition, in data set [2], the “PBMC TOX PXC50” value is reported as under 5.

Turning to `CC(C)CN(CC(C)C)c1ccc([C@H](C)CC(=O)O)cc1Nc1ccc(=O)[nH]c1` [example 217, (3R)-3-{4-[bis(2-methylpropyl)amino]-3-[(6-oxo-1,6-dihydropyridin-3-yl)amino]phenyl}butanoic acid], in data set [1], the IC50 was 3980 nM. For the same molecule, the “PBMC TOX PXC50” value in data set [2] is reported as under 5.

Consider `CO[C@H]1CC[C@H](N(CC(C)C)c2ccc([C@H](C)CC(=O)O)cc2Nc2n[nH]c(C3CC3)n2)CC1` (racemic) [example 221, (3RS)-3-{3-[(5-cyclopropyl-1H-1,2,4-triazol-3-yl)amino]-4-[(2-methylpropyl)[(1rs&,4rs&)-4-methoxycyclohexyl]ami-no]phenyl}butanoic acid], for which the IC50 in data set [1] is 39.8 nM. Besides, the “PBMC TOX PXC50” value in data set [2] is given as under 5.

On to `CC(C)CN(CC(C)C)c1ccc(C(C)(C)CC(=O)O)cc1Nc1nc(C(F)(F)F)ns1` [Example 3, 3-(4-(diisobutylamino)-3-((3-(trifluoromethyl)-1,2,4-thiadiazol-5-yl)amino)phenyl)-3-methylbutanoic Acid], for which, in data set [1], the IC50 was 1.58 nM. In addition, the “PBMC TOX PXC50” value in data set [2] is listed as under 5.

For `CC(C)CN(c1ccc([C@H](C)CC(=O)O)cc1Nc1cnc(Cl)nc1)C1CCOCC1` [Example 10, (R)-3-(3-((2-chloropyrimidin-5-yl)amino)-4-(isobutyl(tetrahydro-2H-pyran-4-yl)amino)phenyl)butanoic Acid], the IC50 in data set [1] is 0.794 nM. Also, the “PBMC TOX PXC50” value in data set [2] is on record as under 5.

With `CO[C@H]1CC[C@@H](N(CC(C)C)c2ccc([C@H](C)CC(=O)O)cc2Nc2nc(Cl)ns2)CC1` [Example 48, (R)-3-(3-((3-chloro-1,2,4-thiadiazol-5-yl)amino)-4-(isobutyl((1s,4S)-4-methoxycyclohexyl)amino)phenyl)butanoic Acid], the IC50 in data set [1] is 1 nM. Also, the “PBMC TOX PXC50” value in data set [2] was under 5.

Consider `CC(C)CN(c1ccc([C@H](C)CC(=O)O)cc1Nc1ncc(C(F)(F)F)cn1)C1CCOCC1` [example 241, (3R)-3-{4-[(2-methylpropyl)(oxan-4-yl)amino]-3-{[5-(trifluoromethyl)pyrimi-din-2-yl]amino}phenyl}butanoic acid], for which the IC50 in data set [1] is 79.4 nM. In data set [2], the “PBMC TOX PXC50” value is on record as under 5.

In the case of `CC(C)CN(c1ccc([C@H](C)CC(=O)O)cc1Nc1n[nH]c(C(F)(F)F)n1)C1CCOCC1` [Example 32, (R)-3-(4-(Isobutyl(tetrahydro-2H-pyran-4-yl)amino)-3-((5-(trifluoromethyl)-1H-1,2,4-triazol-3-yl)amino)phenyl)butanoic Acid], the IC50 in data set [1] is 10 nM. Further, in data set [2], the “PBMC TOX PXC50” value is under 5.

As for `CC[C@H](CC(=O)O)c1ccc(N(CC(C)C)C2CCOCC2)c(Nc2n[nH]c(C3CC3)n2)c1` [Example 41, (R)-3-(3-((5-cyclopropyl-1H-1,2,4-triazol-3-yl)amino)-4-(isobutyl(tetrahydro-2H-pyran-4-yl)amino)phenyl)pentanoic Acid], the IC50 in data set [1] is 7.94 nM. For the same molecule, the “PBMC TOX PXC50” value in data set [2] is under 5.

Consider `CC(C)CN(c1ccc([C@H](C)CC(=O)O)cc1Nc1nc(C(F)(F)F)ns1)C1CCN(c2nc(C(F)(F)F)ns2)CC1` [Example 95, (R)-3-(4-(isobutyl(1-(3-(trifluoromethyl)-1,2,4-thiadiazol-5-yl)piperidin-4-yl)amino)-3-((3-(trifluoromethyl)-1,2,4-thiadiazol-5-yl)amino)phenyl)butanoic Acid], for which the IC50 in data set [1] is 1.58 nM. Further, the “PBMC TOX PXC50” value in data set [2] is on record as under 5.

For `COC(=O)c1c[nH]c(Nc2cc([C@H](C)CC(=O)O)ccc2N(CC(C)C)C2CCCCC2)n1` [Example 77, (R)-3-(4-(cyclohexyl(isobutyl)amino)-3-((4-(methoxycarbonyl)-1H-imidazol-2-yl)amino)phenyl)butanoic Acid], the IC50 in data set [1] was 1.58 nM. In addition, the “PBMC TOX PXC50” value in data set [2] is reported as under 5.

Turning to `CC(C)CN(c1ccc([C@H](C)CC(=O)O)cc1Nc1nc(C(F)(F)F)c[nH]1)C1CCOCC1` [Example 114, (R)-3-(4-(isobutyl(tetrahydro-2H-pyran-4-yl)amino)-3-((4-(trifluoromethyl)-1H-imidazol-2-yl)amino)phenyl)butanoic Acid], the IC50 in data set [1] was 15.8 nM. Also, the “PBMC TOX PXC50” value in data set [2] was under 5.

For the molecule `CO[C@H]1CC[C@H](N(CC(C)C)c2ccc([C@H](C)CC(=O)O)cc2Nc2n[nH]c(C#N)n2)CC1` (racemic) [example 222, (3RS)-3-{3-[(5-cyano-1H-1,2,4-triazol-3-yl)amino]-4-[(2-methylpropyl)[(1rs&,4rs&)-4-methoxycyclohexyl]ami-no]phenyl}butanoic acid], the IC50 in data set [1] is 200 nM. Moreover, in data set [2], the “PBMC TOX PXC50” value is given as under 5.

With `CNC(=O)c1c[nH]c(Nc2cc([C@H](C)CC(=O)O)ccc2N(CC(C)C)C2CCOCC2)n1` [example 232, (3R)-3-(3-{[4-(methylcarbamoyl)-1H-imidazol-2-yl]amino}-4-[(2-methylpropyl)(oxan-4-yl)amino]phenyl)butanoic acid], the IC50 in data set [1] was 3160 nM. Besides, the “PBMC TOX PXC50” value in data set [2] is listed as under 5.

`CC(C)CN(c1ccc([C@H](C)CC(=O)O)cc1Nc1ccc(C(F)(F)F)nc1)C1CCOCC1` [Example 7, (R)-3-(4-(isobutyl(tetrahydro-2H-pyran-4-yl)amino)-3-((6-(trifluoromethyl)pyridin-3-yl)amino)phenyl)butanoic Acid]: the IC50 in data set [1] is 0.631 nM. Moreover, in data set [2], the “PBMC TOX PXC50” value is recorded as under 5.

Regarding `CC(C)CN(c1ccc(C(C)CC(=O)O)cc1Nc1nnc(C(N)=O)s1)C1CCCCC1` (centres unmarked) [Example 80, 3-(3-((5-carbamoyl-1,3,4-thiadiazol-2-yl)amino)-4-(cyclohexyl(isobutyl)amino)phenyl)butanoic], in data set [1], the IC50 is 1.58 nM. Moreover, the “PBMC TOX PXC50” value in data set [2] was under 5.

On to `CC(C)CN(CC(C)C)c1ccc(C(C)CC(=O)O)cc1Nc1nnn(C)n1` (centres unmarked) [example 251, 3-{4-[bis(2-methylpropyl)amino]-3-[(2-methyl-2H-1,2,3,4-tetrazol-5-yl)amino]phenyl}butanoic acid], for which the IC50 in data set [1] was 2000 nM. Besides, the “PBMC TOX PXC50” value in data set [2] is under 5.

On to `CC(C)CN(CCCCCN=[N+]=[N-])c1ccc([C@H](C)CC(=O)O)cc1Nc1nc(C(F)(F)F)ns1` [Example 94, (R)-3-(4-((5-azidopentyl) (isobutyl)amino)-3-((3-(trifluoromethyl)-1,2,4-thiadiazol-5-yl)amino)phenyl)butanoic Acid], for which the IC50 in data set [1] was 1.26 nM. Further, the “PBMC TOX PXC50” value in data set [2] is under 4.3.
